Drawing on ChEMBL document CHEMBL5625198, “Design, synthesis and biological evaluation of novel 3-hydroxypyridin-4(1H)-ones based hybrids as Pseudomonas aeruginosa biofilm inhibitors” (Eur J Med Chem, 2023), this text covers MIC and inhibition for 24 compounds.

One experiment relates to Pseudomonas aeruginosa. Nature of the experiment: Antibacterial activity against wild-type Pseudomonas aeruginosa PAO1 assessed as bacterial growth inhibition by CLSI based broth-microdilution method. Format: functional. (Dilution methods test growth across graded concentrations, often in twofold steps.)
The term MIC denotes the lowest concentration that inhibits growth of the organism. For `Cc1cc(=O)c(O)c(CNC(=O)CSc2nc3cc(F)ccc3s2)n1C`, the MIC is > 128 µM.

As for `Cc1cc(=O)c(O)c(CNC(=O)CSc2nc3cc(F)ccc3[nH]2)n1C`, the minimal inhibitory concentration (MIC) is > 128 µM. Take `Cc1cc(=O)c(O)c(CNC(=O)CSc2nccs2)n1C`: the minimum inhibitory concentration (MIC) was > 128 µM. For `Cc1cc(=O)c(O)c(CNC(=O)CSc2nc3ccc([N+](=O)[O-])cc3s2)n1C`, the MIC is > 128 µM. Still for that read-out and setting: as for `Cc1cc(=O)c(O)c(CNC(=O)CSc2nc3c(F)cccc3o2)n1C`, the figure is > 128 µM; as for `Cc1cc(=O)c(O)c(CNC(=O)CSc2nc3cc([N+](=O)[O-])ccc3s2)n1C`, > 128 µM; as for `Cc1cccc2oc(SCC(=O)NCc3c(O)c(=O)cc(C)n3C)nc12`, > 128 µM. With `Cc1cc(=O)c(O)c(CNC(=O)CSc2nc3ccccc3o2)n1C`, the minimum inhibitory concentration (MIC) was > 128 µM.

Regarding `Cc1cc(=O)c(O)c(CNC(=O)CSc2nc3cc(C(F)(F)F)ccc3o2)n1C`, the MIC is > 128 µM.

As to `COc1ccc2oc(SCC(=O)NCc3c(O)c(=O)cc(C)n3C)nc2c1`, the MIC is > 128 µM. For `Cc1cc(=O)c(O)c(CNC(=O)CSc2nc3ccc(F)cc3o2)n1C`, the MIC is > 128 µM.

As to `Cn1cc(O)c(=O)cc1CNC(=O)CSc1nc2ccccc2s1`, the MIC is > 128 µM. For `Cc1cc(=O)c(O)c(CNC(=O)CSc2nc3ccc(F)cc3s2)n1C`, the MIC is > 128 µM. Turning to `COc1ccc2[nH]c(SCC(=O)NCc3c(O)c(=O)cc(C)n3C)nc2c1`, the MIC was > 128 µM. Take `Cc1nnc(SCC(=O)NCc2c(O)c(=O)cc(C)n2C)s1`: the MIC is > 128 µM. In the case of `Cc1cc(=O)c(O)c(CNC(=O)CSc2nc3cc(OC(F)F)ccc3[nH]2)n1C`, the MIC is > 128 µM. For the compound `Cc1cc(=O)c(O)c(CNC(=O)CSc2ncc[nH]2)n1C`, the MIC was > 128 µM.

For the compound `Cc1cc(=O)c(O)c(CNC(=O)CSc2nc3c(C(C)(C)C)cccc3o2)n1C`, the MIC is > 128 µM.

Turning to `Cc1cc(=O)c(O)c(CNC(=O)CSc2nc3c(C(C)(C)C)cccc3[nH]2)n1C`, the MIC is > 128 µM. Regarding `Cn1cc(O)c(=O)cc1CNC(=O)CSc1nc2ccccc2[nH]1`, the MIC was > 128 µM. Regarding `COc1ccc(SCC(=O)NCc2c(O)c(=O)cc(C)n2C)cc1`, the MIC was > 128 µM. Same read-out and setting: as for `Cc1cc(=O)c(O)c(CNC(=O)CSc2nc3cc(Cl)ccc3o2)n1C`, the figure is > 128 µM; as for `Cc1cc(=O)c(O)c(CNC(=O)CSc2ccccn2)n1C`, > 128 µM. Still for that read-out and setting: as for `Cc1cc(=O)c(O)c(CNC(=O)CSc2nc3cc(C#N)ccc3[nH]2)n1C`, the figure is > 128 µM.

For another experiment, the system named is Pseudomonas aeruginosa. Nature of the experiment: Antibiofilm activity against wild-type Pseudomonas aeruginosa PAO1 assessed as inhibition rate at 10 uM incubated for 24 hrs by crystal violet staining based assay relative to control. It is filed as functional.
The term inhibition denotes the change of the read-out against control, counted positive when it falls. As to `Cc1cc(=O)c(O)c(CNC(=O)CSc2nc3cc(F)ccc3s2)n1C`, the inhibition at 10 µM was 5%.

Consider `Cc1cc(=O)c(O)c(CNC(=O)CSc2nc3cc(F)ccc3[nH]2)n1C`, for which the inhibition at 10 µM amounted to 34.7%. For `Cc1cc(=O)c(O)c(CNC(=O)CSc2nccs2)n1C`, the inhibition at 10 µM was found to be 46.4%. In the case of `Cc1cc(=O)c(O)c(CNC(=O)CSc2nc3ccc([N+](=O)[O-])cc3s2)n1C`, the inhibition at 10 µM was found to be 45.5%. Take `Cc1cc(=O)c(O)c(CNC(=O)CSc2nc3c(F)cccc3o2)n1C`: the inhibition at 10 µM stood at 27.6%.

With `Cc1cc(=O)c(O)c(CNC(=O)CSc2nc3cc([N+](=O)[O-])ccc3s2)n1C`, the inhibition at 10 µM was 10.1%. Turning to `Cc1cc(=O)c(O)c(CNC(=O)CSc2nc3ccccc3o2)n1C`, the inhibition at 10 µM worked out at 26.2%.

As for `Cc1cc(=O)c(O)c(CNC(=O)CSc2nc3cc(C(F)(F)F)ccc3o2)n1C`, the inhibition at 10 µM was 39.5%. On to `COc1ccc2oc(SCC(=O)NCc3c(O)c(=O)cc(C)n3C)nc2c1`, for which the inhibition at 10 µM is 19.6%.

`Cc1cc(=O)c(O)c(CNC(=O)CSc2nc3ccc(F)cc3o2)n1C`: the inhibition at 10 µM was 25.4%. For the compound `Cn1cc(O)c(=O)cc1CNC(=O)CSc1nc2ccccc2s1`, the inhibition at 10 µM was -5.24%. Take `Cc1cc(=O)c(O)c(CNC(=O)CSc2nc3ccc(F)cc3s2)n1C`: the inhibition at 10 µM worked out at 40.4%. In the case of `COc1ccc2[nH]c(SCC(=O)NCc3c(O)c(=O)cc(C)n3C)nc2c1`, the inhibition at 10 µM is 16.3%. In the case of `Cc1nnc(SCC(=O)NCc2c(O)c(=O)cc(C)n2C)s1`, the inhibition at 10 µM was -10.2%. On to `Cc1cc(=O)c(O)c(CNC(=O)CSc2nc3cc(OC(F)F)ccc3[nH]2)n1C`, for which the inhibition at 10 µM was determined as 17.6%. For `Cc1cc(=O)c(O)c(CNC(=O)CSc2ncc[nH]2)n1C`, the inhibition at 10 µM is 46.1%. Regarding `Cc1cc(=O)c(O)c(CNC(=O)CSc2nc3c(C(C)(C)C)cccc3o2)n1C`, the inhibition at 10 µM came to 19.4%. The same measure, in the same setting: as for `Cc1cc(=O)c(O)c(CNC(=O)CSc2nc3c(C(C)(C)C)cccc3[nH]2)n1C`, the figure is 14.5%; as for `COc1ccc(SCC(=O)NCc2c(O)c(=O)cc(C)n2C)cc1`, -13.6%; as for `Cc1cc(=O)c(O)c(CNC(=O)CSc2nc3cc(Cl)ccc3o2)n1C`, 41.7%. On to `Cc1cc(=O)c(O)c(CNC(=O)CSc2nc3cc(C#N)ccc3[nH]2)n1C`, for which the inhibition at 10 µM is 41.3%.
